Results reported in ChEMBL document CHEMBL3272333, “Synthesis and biologic distribution of radioiodinated beta-adrenergic antagonists” (J Med Chem, 1978).

Tests used:
Parameters in all cases: dose 0.5-1 mg/kg, route intravenous
Blood [1] = experiment: Biodistribution in Sprague-Dawley rat blood at 0.5 to 1 mg/kg, iv after 15 mins by gamma-well counting analysis; type: ADME, organism-based; conditions: in vivo, 0.25 h
[2] = Biodistribution in Sprague-Dawley rat fat and fur assessed per organ at 0.5 to 1 mg/kg, iv after 15 mins by gamma-well counting analysis; type: ADME, organism-based, Adipose tissue; conditions: in vivo, 0.25 h
Lung [3] = experiment: Biodistribution in Sprague-Dawley rat lung assessed per organ at 0.5 to 1 mg/kg, iv after 1 hr by gamma-well counting analysis; type: ADME, organism-based; conditions: in vivo
Thyroid gland [4] = experiment: Biodistribution in Sprague-Dawley rat thyroid assessed per organ at 0.5 to 1 mg/kg, iv after 1 hr by gamma-well counting analysis; type: ADME, organism-based; conditions: in vivo
Bone [5] = experiment: Biodistribution in Sprague-Dawley rat bone assessed per organ at 0.5 to 1 mg/kg, iv after 15 mins by gamma-well counting analysis; type: ADME, organism-based, Bone element; conditions: in vivo, 0.25 h
Lung [6] = experiment: Biodistribution in Sprague-Dawley rat lung at 0.5 to 1 mg/kg, iv after 15 mins by gamma-well counting analysis; type: ADME, organism-based; conditions: in vivo, 0.25 h
Muscle tissue [7] = experiment: Biodistribution in Sprague-Dawley rat muscle assessed per organ at 0.5 to 1 mg/kg, iv after 1 hr by gamma-well counting analysis; type: ADME, organism-based; conditions: in vivo
Small intestine [8] = experiment: Biodistribution in Sprague-Dawley rat small intestine assessed per organ at 0.5 to 1 mg/kg, iv after 1 hr by gamma-well counting analysis; type: ADME, organism-based; conditions: in vivo
Thyroid gland [9] = experiment: Biodistribution in Sprague-Dawley rat thyroid assessed per organ at 0.5 to 1 mg/kg, iv after 15 mins by gamma-well counting analysis; type: ADME, organism-based; conditions: in vivo, 0.25 h
Kidney [10] = experiment: Biodistribution in Sprague-Dawley rat kidney assessed per organ at 0.5 to 1 mg/kg, iv after 15 mins by gamma-well counting analysis; type: ADME, organism-based; conditions: in vivo, 0.25 h
Spleen [11] = experiment: Biodistribution in Sprague-Dawley rat spleen at 0.5 to 1 mg/kg, iv after 1 hr by gamma-well counting analysis; type: ADME, organism-based; conditions: in vivo
[12] = Biodistribution in Sprague-Dawley rat fat and fur assessed per organ at 0.5 to 1 mg/kg, iv after 1 hr by gamma-well counting analysis; type: ADME, organism-based, Adipose tissue; conditions: in vivo
Blood [13] = experiment: Biodistribution in Sprague-Dawley rat blood assessed per organ at 0.5 to 1 mg/kg, iv after 15 mins by gamma-well counting analysis; type: ADME, organism-based; conditions: in vivo, 0.25 h
Spleen [14] = experiment: Biodistribution in Sprague-Dawley rat spleen assessed per organ at 0.5 to 1 mg/kg, iv after 1 hr by gamma-well counting analysis; type: ADME, organism-based; conditions: in vivo
Thyroid gland [15] = experiment: Biodistribution in Sprague-Dawley rat thyroid at 0.5 to 1 mg/kg, iv after 15 mins by gamma-well counting analysis; type: ADME, organism-based; conditions: in vivo, 0.25 h
Heart [16] = experiment: Biodistribution in Sprague-Dawley rat heart at 0.5 to 1 mg/kg, iv after 15 mins by gamma-well counting analysis; type: ADME, organism-based; conditions: in vivo, 0.25 h
Kidney [17] = experiment: Biodistribution in Sprague-Dawley rat kidney assessed per organ at 0.5 to 1 mg/kg, iv after 1 hr by gamma-well counting analysis; type: ADME, organism-based; conditions: in vivo
Spleen [18] = experiment: Biodistribution in Sprague-Dawley rat spleen assessed per organ at 0.5 to 1 mg/kg, iv after 15 mins by gamma-well counting analysis; type: ADME, organism-based; conditions: in vivo, 0.25 h
Spleen [19] = experiment: Biodistribution in Sprague-Dawley rat spleen at 0.5 to 1 mg/kg, iv after 15 mins by gamma-well counting analysis; type: ADME, organism-based; conditions: in vivo, 0.25 h
Lung [20] = experiment: Biodistribution in Sprague-Dawley rat lung assessed per organ at 0.5 to 1 mg/kg, iv after 15 mins by gamma-well counting analysis; type: ADME, organism-based; conditions: in vivo, 0.25 h
Heart [21] = experiment: Biodistribution in Sprague-Dawley rat heart assessed per organ at 0.5 to 1 mg/kg, iv after 1 hr by gamma-well counting analysis; type: ADME, organism-based; conditions: in vivo
Liver [22] = experiment: Biodistribution in Sprague-Dawley rat liver at 0.5 to 1 mg/kg, iv after 1 hr by gamma-well counting analysis; type: ADME, organism-based; conditions: in vivo
Kidney [23] = experiment: Biodistribution in Sprague-Dawley rat kidney at 0.5 to 1 mg/kg, iv after 15 mins by gamma-well counting analysis; type: ADME, organism-based; conditions: in vivo, 0.25 h
Muscle tissue [24] = experiment: Biodistribution in Sprague-Dawley rat muscle assessed per organ at 0.5 to 1 mg/kg, iv after 15 mins by gamma-well counting analysis; type: ADME, organism-based; conditions: in vivo, 0.25 h
Liver [25] = experiment: Biodistribution in Sprague-Dawley rat liver assessed per organ at 0.5 to 1 mg/kg, iv after 1 hr by gamma-well counting analysis; type: ADME, organism-based; conditions: in vivo
Bone [26] = experiment: Biodistribution in Sprague-Dawley rat bone at 0.5 to 1 mg/kg, iv after 15 mins by gamma-well counting analysis; type: ADME, organism-based, Bone element; conditions: in vivo, 0.25 h
Lung [27] = experiment: Biodistribution in Sprague-Dawley rat lung at 0.5 to 1 mg/kg, iv after 1 hr by gamma-well counting analysis; type: ADME, organism-based; conditions: in vivo
Liver [28] = experiment: Biodistribution in Sprague-Dawley rat liver assessed per organ at 0.5 to 1 mg/kg, iv after 15 mins by gamma-well counting analysis; type: ADME, organism-based; conditions: in vivo, 0.25 h
Large intestine [29] = experiment: Biodistribution in Sprague-Dawley rat large intestine assessed per organ at 0.5 to 1 mg/kg, iv after 1 hr by gamma-well counting analysis; type: ADME, organism-based; conditions: in vivo
Kidney [30] = experiment: Biodistribution in Sprague-Dawley rat kidney at 0.5 to 1 mg/kg, iv after 1 hr by gamma-well counting analysis; type: ADME, organism-based; conditions: in vivo
Heart [31] = experiment: Biodistribution in Sprague-Dawley rat heart assessed per organ at 0.5 to 1 mg/kg, iv after 15 mins by gamma-well counting analysis; type: ADME, organism-based; conditions: in vivo, 0.25 h
Bone [32] = experiment: Biodistribution in Sprague-Dawley rat bone assessed per organ at 0.5 to 1 mg/kg, iv after 1 hr by gamma-well counting analysis; type: ADME, organism-based, Bone element; conditions: in vivo
Muscle tissue [33] = experiment: Biodistribution in Sprague-Dawley rat muscle at 0.5 to 1 mg/kg, iv after 15 mins by gamma-well counting analysis; type: ADME, organism-based; conditions: in vivo, 0.25 h
Heart [34] = experiment: Biodistribution in Sprague-Dawley rat heart at 0.5 to 1 mg/kg, iv after 1 hr by gamma-well counting analysis; type: ADME, organism-based; conditions: in vivo
Large intestine [35] = experiment: Biodistribution in Sprague-Dawley rat large intestine assessed per organ at 0.5 to 1 mg/kg, iv after 15 mins by gamma-well counting analysis; type: ADME, organism-based; conditions: in vivo, 0.25 h
Stomach [36] = experiment: Biodistribution in Sprague-Dawley rat stomach assessed per organ at 0.5 to 1 mg/kg, iv after 1 hr by gamma-well counting analysis; type: ADME, organism-based; conditions: in vivo
Muscle tissue [37] = experiment: Biodistribution in Sprague-Dawley rat muscle at 0.5 to 1 mg/kg, iv after 1 hr by gamma-well counting analysis; type: ADME, organism-based; conditions: in vivo
Bone [38] = experiment: Biodistribution in Sprague-Dawley rat bone at 0.5 to 1 mg/kg, iv after 1 hr by gamma-well counting analysis; type: ADME, organism-based, Bone element; conditions: in vivo
Small intestine [39] = experiment: Biodistribution in Sprague-Dawley rat small intestine assessed per organ at 0.5 to 1 mg/kg, iv after 15 mins by gamma-well counting analysis; type: ADME, organism-based; conditions: in vivo, 0.25 h
Blood [40] = experiment: Biodistribution in Sprague-Dawley rat blood at 0.5 to 1 mg/kg, iv after 1 hr by gamma-well counting analysis; type: ADME, organism-based; conditions: in vivo
Blood [41] = experiment: Biodistribution in Sprague-Dawley rat blood assessed per organ at 0.5 to 1 mg/kg, iv after 1 hr by gamma-well counting analysis; type: ADME, organism-based; conditions: in vivo
Thyroid gland [42] = experiment: Biodistribution in Sprague-Dawley rat thyroid at 0.5 to 1 mg/kg, iv after 1 hr by gamma-well counting analysis; type: ADME, organism-based; conditions: in vivo
Liver [43] = experiment: Biodistribution in Sprague-Dawley rat liver at 0.5 to 1 mg/kg, iv after 15 mins by gamma-well counting analysis; type: ADME, organism-based; conditions: in vivo, 0.25 h
Stomach [44] = experiment: Biodistribution in Sprague-Dawley rat stomach assessed per organ at 0.5 to 1 mg/kg, iv after 15 mins by gamma-well counting analysis; type: ADME, organism-based; conditions: in vivo, 0.25 h

Work on CC(C)NCC(O)COc1ccc(NC(=O)c2cccc([125I])c2)cc1 (racemic) yielded a Drug uptake (Blood [1]) of 0.06 % ID/g, a Drug uptake [2] of 5.87 %ID and a Drug uptake (Lung [3]) of 2.19 %ID. It also gave a Drug uptake (Thyroid gland [4]) of 0.07 %ID, a Drug uptake (Bone [5]) of 2.93 %ID and a Drug uptake (Lung [6]) of 1.24 % ID/g. It also gave a Drug uptake (Muscle tissue [7]) of 15.96 %ID, a Drug uptake (Small intestine [8]) of 5.49 %ID and a Drug uptake (Thyroid gland [9]) of 0.1 %ID. The Drug uptake (Kidney [10]) was 3.45 %ID, the Drug uptake (Spleen [11]) was 1.14 % ID/g and the Drug uptake [12] was 7.19 %ID. For the same compound, the Drug uptake (Blood [13]) was 0.79 %ID, the Drug uptake (Spleen [14]) was 0.6 %ID and the Drug uptake (Thyroid gland [15]) was 4.73 % ID/g. For the same compound, the Drug uptake (Heart [16]) was 0.89 % ID/g, the Drug uptake (Kidney [17]) was 2.3 %ID and the Drug uptake (Spleen [18]) was 0.8 %ID. The Drug uptake (Spleen [19]) was 1.33 % ID/g, the Drug uptake (Lung [20]) was 1.89 %ID and the Drug uptake (Heart [21]) was 0.35 %ID. The Drug uptake (Liver [22]) was 1.39 % ID/g, the Drug uptake (Kidney [23]) was 1.82 % ID/g and the Drug uptake (Muscle tissue [24]) was 18.27 %ID. It also gave a Drug uptake (Liver [25]) of 15.97 %ID, a Drug uptake (Bone [26]) of 0.21 % ID/g and a Drug uptake (Lung [27]) of 1.82 % ID/g. The Drug uptake (Liver [28]) was 18.94 %ID, the Drug uptake (Large intestine [29]) was 0.94 %ID and the Drug uptake (Kidney [30]) was 1.27 % ID/g. The Drug uptake (Heart [31]) was 0.64 %ID, the Drug uptake (Bone [32]) was 2.44 %ID and the Drug uptake (Muscle tissue [33]) was 0.2 % ID/g. The Drug uptake (Heart [34]) was 0.51 % ID/g, the Drug uptake (Large intestine [35]) was 0.56 %ID and the Drug uptake (Stomach [36]) was 0.7 %ID. For the same compound, the Drug uptake (Muscle tissue [37]) was 0.17 % ID/g, the Drug uptake (Bone [38]) was 0.18 % ID/g and the Drug uptake (Small intestine [39]) was 2.45 %ID. For the same compound, the Drug uptake (Blood [40]) was 0.06 % ID/g, the Drug uptake (Blood [41]) was 0.86 %ID and the Drug uptake (Thyroid gland [42]) was 3.58 % ID/g. The Drug uptake (Liver [43]) was 1.76 % ID/g and the Drug uptake (Stomach [44]) was 0.71 %ID.

CC(=O)c1cc(NC(=O)c2cccc([125I])c2)ccc1OCC(O)CNC(C)C (racemic) gave a Drug uptake (Blood [1]) of 0.09 % ID/g, a Drug uptake [2] of 7.66 %ID and a Drug uptake (Lung [3]) of 1.41 %ID. The Drug uptake (Thyroid gland [4]) was 0.17 %ID, the Drug uptake (Bone [5]) was 2.49 %ID and the Drug uptake (Lung [6]) was 1.63 % ID/g. For the same compound, the Drug uptake (Muscle tissue [7]) was 14.87 %ID, the Drug uptake (Small intestine [8]) was 15.4 %ID and the Drug uptake (Thyroid gland [9]) was 0.12 %ID. The Drug uptake (Kidney [10]) was 4.38 %ID, the Drug uptake (Spleen [11]) was 0.6 % ID/g and the Drug uptake [12] was 6.73 %ID. For the same compound, the Drug uptake (Blood [13]) was 1 %ID, the Drug uptake (Spleen [14]) was 0.31 %ID and the Drug uptake (Thyroid gland [15]) was 6.06 % ID/g. For the same compound, the Drug uptake (Heart [16]) was 0.99 % ID/g, the Drug uptake (Kidney [17]) was 1.83 %ID and the Drug uptake (Spleen [18]) was 0.52 %ID. The Drug uptake (Spleen [19]) was 0.97 % ID/g, the Drug uptake (Lung [20]) was 1.77 %ID and the Drug uptake (Heart [21]) was 0.31 %ID. For the same compound, the Drug uptake (Liver [22]) was 1.59 % ID/g, the Drug uptake (Kidney [23]) was 2.8 % ID/g and the Drug uptake (Muscle tissue [24]) was 16.64 %ID. It also gave a Drug uptake (Liver [25]) of 12.11 %ID, a Drug uptake (Bone [26]) of 0.22 % ID/g and a Drug uptake (Lung [27]) of 1.27 % ID/g. It also gave a Drug uptake (Liver [28]) of 20.19 %ID, a Drug uptake (Large intestine [29]) of 1.01 %ID and a Drug uptake (Kidney [30]) of 1.16 % ID/g. It also gave a Drug uptake (Heart [31]) of 0.66 %ID, a Drug uptake (Bone [32]) of 1.94 %ID and a Drug uptake (Muscle tissue [33]) of 0.22 % ID/g. The Drug uptake (Heart [34]) was 0.58 % ID/g, the Drug uptake (Large intestine [35]) was 2.42 %ID and the Drug uptake (Stomach [36]) was 1.19 %ID. The Drug uptake (Muscle tissue [37]) was 0.2 % ID/g, the Drug uptake (Bone [38]) was 0.17 % ID/g and the Drug uptake (Small intestine [39]) was 9.39 %ID. For the same compound, the Drug uptake (Blood [40]) was 0.06 % ID/g, the Drug uptake (Blood [41]) was 0.74 %ID and the Drug uptake (Liver [43]) was 2.4 % ID/g. The Drug uptake (Stomach [44]) was 1.26 %ID.
